According to PubChem BioAssay AID256 (DTP/NCI, 2004):
Values joined by “and” are separate entries in the source; they are usually repeats but may differ in a detail not shown here. Equal values may be shown once. Inconclusive results and toxic doses are left out. How the source made its calls: active means survival T/C of 150% or more; inactive means T/C below 125% in these data.

Tested on: CD2F1 mice, L1210 leukemia ip, survival T/C
Test: NCI In Vivo Anticancer Drug Screen. Data for tumor model L1210 Leukemia (intraperitoneal) in CD2F1 (CDF1) mice
Conditions: endpoint: mean survival time, higher = longer survival
How it was run: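 Read-out first: treated-group measurement over vehicle-control measurement, expressed as a ratio. Animals bore a transplanted tumor line and were dosed with compound or vehicle.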

[1] = dose: 100.0 mg/kg/injection, schedule: Q04DX002 (ip), vehicle: saline with Tween-80
[2] = dose: 200.0 mg/kg/injection, schedule: Q04DX002 (ip), vehicle: saline with Tween-80
[3] = dose: 100.0 mg/kg/injection, schedule: Q01DX009 (ip), vehicle: other
[4] = dose: 200.0 mg/kg/injection, schedule: Q01DX009 (ip), vehicle: other
[5] = dose: 25.0 mg/kg/injection, schedule: Q01DX009 (ip), vehicle: saline
[6] = dose: 50.0 mg/kg/injection, schedule: Q01DX009 (ip), vehicle: saline
[7] = dose: 100.0 mg/kg/injection, schedule: Q01DX009 (ip), vehicle: saline
[8] = dose: 100.0 mg/kg/injection, schedule: Q04DX003 (ip), vehicle: saline with Tween-80
[9] = dose: 200.0 mg/kg/injection, schedule: Q04DX003 (ip), vehicle: saline with Tween-80
[10] = dose: 400.0 mg/kg/injection, schedule: Q04DX003 (ip), vehicle: saline with Tween-80
[11] = dose: 100.0 mg/kg/injection, schedule: Q01DX009 (ip), vehicle: saline with Tween-80
[12] = dose: 50.0 mg/kg/injection, schedule: Q01DX009 (ip), vehicle: saline with Tween-80
[13] = dose: 200.0 mg/kg/injection, schedule: Q01DX009 (ip), vehicle: saline with Tween-80

Measured: T/C

COC(=O)C1=C(O)C(C(=O)OC)C2/C(=[N+](/[O-])O)c3c(cc([N+](=O)[O-])cc3[N+](=O)[O-])C1C2[N+](=O)[O-] (centres undefined)
inactive: [1] 94 % of control | [2] 105 % of control | dose: 400.0 mg/kg/injection, schedule: Q04DX002 (ip), vehicle: saline with Tween-80 90 % of control

CCCCCC(=O)N1CCCCCC1
inactive: dose: 100.0 mg/kg/injection, schedule: Q04DX003 (ip), vehicle: saline 96 % of control | dose: 200.0 mg/kg/injection, schedule: Q04DX003 (ip), vehicle: saline 98 % of control | dose: 400.0 mg/kg/injection, schedule: Q04DX003 (ip), vehicle: saline 98 % of control

O=C(NC(CSSCC(NC(=O)OCc1ccccc1)C(=O)O)C(=O)O)OCc1ccccc1 (centres undefined)
inactive: [3] 95 % of control | [4] 95 % of control | dose: 400.0 mg/kg/injection, schedule: Q01DX009 (ip), vehicle: other 98 % of control

N#Cc1cccnc1.NCCNCCN.[Br-].[Pt+4]
inactive: dose: 12.5 mg/kg/injection, schedule: Q01DX009 (ip), vehicle: saline 95 % of control | [5] 103 % of control | [6] 101 % of control | [7] 98 % of control | dose: 200.0 mg/kg/injection, schedule: Q01DX009 (ip), vehicle: saline 98 % of control

CC(CP(=O)(c1ccccc1)c1ccccc1)C(=O)O (centres undefined)
inactive: [8] 92 % of control | [9] 95 % of control | [10] 101 % of control

O=[N+]([O-])c1ccc2c(c1)S(=O)c1cc([N+](=O)[O-])c(Br)cc1-2 (centres undefined) (tested in a mixture with another compound)
inactive: dose: 50.0 mg/kg/injection, schedule: Q04DX002 (ip), vehicle: saline with Tween-80 108 % of control | [1] 108 % of control | [2] 102 % of control

CCN(CC)c1ccc(N(C(C)=O)C(C)=O)cc1
inactive: dose: 6.25 mg/kg/injection, schedule: Q04DX003 (ip), vehicle: saline with Tween-80 91 % of control | dose: 12.5 mg/kg/injection, schedule: Q04DX003 (ip), vehicle: saline with Tween-80 95 % of control | dose: 25.0 mg/kg/injection, schedule: Q04DX003 (ip), vehicle: saline with Tween-80 93 % of control

C=C1C(=O)OC2C1CCC(C)C1(O)C=CC(=O)C21C (centres undefined)
inactive: dose: 50.0 mg/kg/injection, schedule: Q01DX001 (ip), vehicle: saline 107 % of control | dose: 100.0 mg/kg/injection, schedule: Q01DX001 (ip), vehicle: saline 97 % of control

N=C(N)c1ccc(OCCOc2cccc(N)c2)cc1
inactive: [5] 100 % of control | [6] 95 % of control | [11] 93 % of control | [7] 97 % of control

CSc1nc2cc(S(=O)(=O)O)ccc2s1
inactive: dose: 100.0 mg/kg/injection, schedule: Q04DX003 (ip), vehicle: saline sonified 103 % of control | dose: 200.0 mg/kg/injection, schedule: Q04DX003 (ip), vehicle: saline sonified 97 % of control | dose: 400.0 mg/kg/injection, schedule: Q04DX003 (ip), vehicle: saline sonified 89 % of control

Cc1ccc(C(O)c2c(C)cc(C)cc2C)c(C)c1 (centres undefined)
inactive: [8] 94 % of control | [9] 89 % of control | [10] 88 % of control

Cc1cc(C)c(C(=O)C(=S)N2CCOCC2)c(C)c1
inactive: dose: 100.0 mg/kg/injection, schedule: Q04DX003 (ip), vehicle: acetone 98 % of control | dose: 200.0 mg/kg/injection, schedule: Q04DX003 (ip), vehicle: acetone 104 % of control | dose: 400.0 mg/kg/injection, schedule: Q04DX003 (ip), vehicle: acetone 93 % of control

O=c1oc2c(ccc3ccccc32)c(O)c1-c1cccc2ccccc12
inactive: [12] 103 % of control | [11] 100 % of control | [13] 93 % of control

CCOC(=S)SSC(=S)OCC
inactive: dose: 100.0 mg/kg/injection, schedule: Q01DX001 (ip), vehicle: Klucel (hydroxypropylcellulose) (HPC) 92 % of control | dose: 200.0 mg/kg/injection, schedule: Q01DX001 (ip), vehicle: Klucel (hydroxypropylcellulose) (HPC) 114 % of control

O=C1NC(CN2CCC(O)CC2)C(=O)NC1CN1CCC(O)CC1 (centres undefined)
inactive: dose: 3.13 mg/kg/injection, schedule: Q01DX009 (ip), vehicle: water 97 % of control | dose: 6.25 mg/kg/injection, schedule: Q01DX009 (ip), vehicle: water 95 % of control | dose: 12.5 mg/kg/injection, schedule: Q01DX009 (ip), vehicle: water 97 % of control | dose: 25.0 mg/kg/injection, schedule: Q01DX009 (ip), vehicle: water 100 % of control | dose: 50.0 mg/kg/injection, schedule: Q01DX009 (ip), vehicle: water 100 % of control | dose: 100.0 mg/kg/injection, schedule: Q01DX009 (ip), vehicle: water 108 % of control

COc1ccc(NC(=O)Oc2ccc(Cl)cc2Cl)c(Cl)c1
inactive: dose: 25.0 mg/kg/injection, schedule: Q01DX009 (ip), vehicle: Klucel (hydroxypropylcellulose) (HPC) 95 % of control | dose: 50.0 mg/kg/injection, schedule: Q01DX009 (ip), vehicle: Klucel (hydroxypropylcellulose) (HPC) 95 % of control and 107 % of control | dose: 100.0 mg/kg/injection, schedule: Q01DX009 (ip), vehicle: Klucel (hydroxypropylcellulose) (HPC) 98 % of control and 104 % of control | dose: 100.0 mg/kg/injection, schedule: Q04DX003 (ip), vehicle: Klucel (hydroxypropylcellulose) (HPC) 98 % of control | dose: 200.0 mg/kg/injection, schedule: Q01DX009 (ip), vehicle: Klucel (hydroxypropylcellulose) (HPC) 120 % of control and 102 % of control | dose: 200.0 mg/kg/injection, schedule: Q04DX003 (ip), vehicle: Klucel (hydroxypropylcellulose) (HPC) 104 % of control | dose: 400.0 mg/kg/injection, schedule: Q04DX003 (ip), vehicle: Klucel (hydroxypropylcellulose) (HPC) 112 % of control

O=C1CCCC2C(=O)CCCC12 (centres undefined)
inactive: [11] 97 % of control | [13] 103 % of control | dose: 400.0 mg/kg/injection, schedule: Q01DX009 (ip), vehicle: saline with Tween-80 103 % of control

Nc1ccccc1Nc1ccncc1
inactive: dose: 25.0 mg/kg/injection, schedule: Q01DX009 (ip), vehicle: saline with Tween-80 100 % of control | [12] 101 % of control | [8] 91 % of control

CCOc1ccc(/C=C/[N+](=O)[O-])cc1
inactive: [11] 114 % of control | [8] 104 % of control | [13] 89 % of control | [9] 98 % of control | [10] 111 % of control

CC1(C)/C(=N/Nc2ccc([N+](=O)[O-])cc2[N+](=O)[O-])CCc2ccccc21
inactive: dose: 12.5 mg/kg/injection, schedule: Q01DX009 (ip), vehicle: other 94 % of control | dose: 25.0 mg/kg/injection, schedule: Q01DX009 (ip), vehicle: other 97 % of control | dose: 50.0 mg/kg/injection, schedule: Q01DX009 (ip), vehicle: other 90 % of control | [3] 94 % of control | [4] 90 % of control

CCCCNC(C)[C@]1(O)Cc2c(O)c3c(c(O)c2[C@@H](OC2CC(N)C(O)C(C)O2)C1)C(=O)c1c(OC)cccc1C3=O (some centres undefined)
inactive: dose: 0.15 mg/kg/injection, schedule: Q01DX009 (ip), vehicle: water 106 % of control | dose: 0.31 mg/kg/injection, schedule: Q01DX009 (ip), vehicle: water 114 % of control | dose: 0.62 mg/kg/injection, schedule: Q01DX009 (ip), vehicle: water 111 % of control | dose: 1.25 mg/kg/injection, schedule: Q01DX009 (ip), vehicle: water 112 % of control | dose: 2.5 mg/kg/injection, schedule: Q01DX009 (ip), vehicle: water 122 % of control | dose: 5.0 mg/kg/injection, schedule: Q01DX009 (ip), vehicle: water 118 % of control | dose: 10.0 mg/kg/injection, schedule: Q01DX009 (ip), vehicle: water 88 % of control
